The values below come from ChEMBL document CHEMBL1146039, “Synthesis and antitumor activity of two natural N-acetylglucosamine-bearing triterpenoid saponins: lotoidoside D and E” (Bioorg Med Chem Lett, 2006).

The subject of experiment [1] is HeLa. Description: Antitumor activity against HeLa cell line at 10 nM by MTT assay. Conditions: Homo sapiens. The class given is functional. Background: Tetrazolium dyes change colour on reduction, which living cells bring about.
Experiment [2] concerns HeLa. Description: Antitumor activity against HeLa cell line at 10 uM by MTT assay. The class given is functional. Conditions: Homo sapiens.
The test system of experiment [3] is HeLa. The experiment can be described thus: Antitumor activity against HeLa cell line at 1 uM by MTT assay. The class given is functional. Conditions: Homo sapiens.
For experiment [4], the system named is HeLa. Description: Antitumor activity against HeLa cell line by MTT assay. In kind it is functional, cell-based. Conditions: Homo sapiens.
A further experiment relates to WEHI-164. Description: Antitumor activity against WEHI 164 cell. Particulars: Mus musculus. The class given is functional, cell-based.
The test system of experiment [5] is HeLa. The experiment can be described thus: Antitumor activity against HeLa cell line at 100 nM by MTT assay. In kind it is functional. Particulars: Homo sapiens.

Take `CC(=O)N[C@H]1[C@H](O[C@H]2CC[C@]3(C)[C@H]4CC=C5[C@@H]6CC(C)(C)CC[C@]6(C(=O)O)CC[C@@]5(C)[C@]4(C)CC[C@H]3C2(C)C)O[C@H](CO)[C@H](O[C@@H]2O[C@H](CO)[C@@H](O)[C@H](O)[C@H]2O)[C@@H]1O[C@@H]1O[C@H](CO)[C@H](O)[C@H](O)[C@H]1O` [LOTOIDOSIDE D]: testing at 0.01 µM in the experiment with HeLa [1] gave an inhibition of 34.4%. For the same compound, the inhibition (in general, the change of the read-out against control, counted positive when it falls) at 10 µM with HeLa [2] was 56.4%. In the experiment on HeLa [3], this compound registered an inhibition at 1 µM of 35.3%. In addition, the IC50 – broadly, the concentration needed to halve the response being measured – in the experiment with HeLa [4] stood at 2740 nM; with WEHI-164 it was 360 nM. Further, the inhibition at 0.1 µM in the experiment with HeLa [5] was determined as 32.8%.

As for `CC(=O)N[C@H]1[C@H](O[C@H]2CC[C@]3(C)[C@H]4CC=C5[C@@H]6CC(C)(C)CC[C@]6(C(=O)O)CC[C@@]5(C)[C@]4(C)CC[C@H]3C2(C)C)O[C@H](CO)[C@@H](O)[C@@H]1O[C@@H]1O[C@H](CO)[C@H](O)[C@H](O)[C@H]1O` [LOTOIDOSIDE E], in the experiment with HeLa [1], at 0.01 µM the inhibition was 0.79%. The compound also had an inhibition at 10 µM in the experiment with HeLa [2] of 42%. The inhibition at 1 µM with HeLa [3] was 10%. Moreover, the values for the IC50 in the experiment with HeLa [4] and in the experiment on WEHI-164 were more than 10000 nM and 30 nM, respectively. In the experiment with HeLa [5], this compound yielded an inhibition at 0.1 µM of 1.71%.
